Several values for one entry are separate records, joined by “and”; a condition that tells them apart may be missing. Identical values can stand only once.
Details: 343.15 K, Liquid, Vibrating tube method

CCCCCC(=O)OCC(COC(=O)CCCCC)(COC(=O)CCCCC)COC(=O)CCCCC [pentaerythritol tetrahexanoate]
Details	mass density
398.2 kPa	957.4 kg/m3
398.4 kPa	957.4 kg/m3
399.3 kPa	957.3 kg/m3
399.8 kPa	957.5 kg/m3
400.1 kPa	957.4 kg/m3
400.6 kPa	957.2 kg/m3
400.8 kPa	957.4 kg/m3
401.5 kPa	957.5 kg/m3
402 kPa	957.5 kg/m3
402.4 kPa	957.3 kg/m3
402.9 kPa	957.6 kg/m3
403.4 kPa	957.4 kg/m3
403.9 kPa	957.4 kg/m3
404.3 kPa	957.5 kg/m3
404.8 kPa	957.4 kg/m3
407.4 kPa	957.3 kg/m3
407.9 kPa	957.4 kg/m3
408.6 kPa	957.4 kg/m3
409 kPa	957.3 kg/m3
409.2 kPa	957.4 kg/m3
409.9 kPa	957.3 kg/m3
410.4 kPa	957.3 kg/m3
413 kPa	957.4 kg/m3
413.5 kPa	957.5 kg/m3
413.9 kPa	957.4 kg/m3
414.4 kPa	957.4 kg/m3
414.9 kPa	957.3 kg/m3
415.1 kPa	957.5 kg/m3
418 kPa	957.4 kg/m3
418.5 kPa	957.5 kg/m3
419.6 kPa	957.4 kg/m3
419.8 kPa	957.4 kg/m3
420.3 kPa	957.3 kg/m3
421.3 kPa	957.3 kg/m3
421.5 kPa	957.3 kg/m3
423.4 kPa	957.3 kg/m3
423.9 kPa	957.3 kg/m3
424.1 kPa	957.4 kg/m3
425.1 kPa	957.3 kg/m3
425.5 kPa	957.4 kg/m3
425.7 kPa	957.4 kg/m3
426.2 kPa	957.4 kg/m3
426.7 kPa	957.3 kg/m3
427.2 kPa	957.3 kg/m3
427.9 kPa	957.5 kg/m3
428.4 kPa	957.4 kg/m3
429 kPa	957.5 kg/m3
429.5 kPa	957.4 kg/m3
429.8 kPa	957.5 kg/m3
430.4 kPa	957.5 kg/m3
430.9 kPa	957.4 kg/m3
431.6 kPa	957.4 kg/m3 and 957.5 kg/m3
431.9 kPa	957.5 kg/m3
432.6 kPa	957.4 kg/m3
432.8 kPa	957.5 kg/m3
433 kPa	957.3 kg/m3
435 kPa	957.5 kg/m3
437.5 kPa	957.5 kg/m3
440.8 kPa	957.4 kg/m3
443.6 kPa	957.3 kg/m3
446.3 kPa	957.4 kg/m3
449.5 kPa	957.5 kg/m3
452.2 kPa	957.5 kg/m3
455.6 kPa	957.4 kg/m3
458.5 kPa	957.4 kg/m3
461.8 kPa	957.4 kg/m3
464.6 kPa	957.3 kg/m3
468.2 kPa	957.4 kg/m3
471.5 kPa	957.4 kg/m3
474.8 kPa	957.4 kg/m3
477.4 kPa	957.5 kg/m3
481.3 kPa	957.6 kg/m3
484.6 kPa	957.4 kg/m3
487.7 kPa	957.3 kg/m3
491.5 kPa	957.4 kg/m3
525.8 kPa	957.3 kg/m3
529.4 kPa	957.6 kg/m3
533.4 kPa	957.5 kg/m3
538.1 kPa	957.5 kg/m3
545.9 kPa	957.4 kg/m3
550.2 kPa	957.6 kg/m3
555.3 kPa	957.6 kg/m3
559.3 kPa	957.5 kg/m3
564 kPa	957.5 kg/m3
569 kPa	957.5 kg/m3
573.7 kPa	957.5 kg/m3
578 kPa	957.5 kg/m3
584 kPa	957.6 kg/m3
588.1 kPa	957.6 kg/m3
593 kPa	957.5 kg/m3
603.9 kPa	957.5 kg/m3
609 kPa	957.6 kg/m3
614.9 kPa	957.5 kg/m3
620.1 kPa	957.6 kg/m3
625 kPa	957.5 kg/m3
631.2 kPa	957.5 kg/m3
636.6 kPa	957.6 kg/m3
641.6 kPa	957.6 kg/m3
647 kPa	957.7 kg/m3
653.6 kPa	957.6 kg/m3
659.4 kPa	957.5 kg/m3
666.5 kPa	957.5 kg/m3
672.6 kPa	957.7 kg/m3
678.3 kPa	957.5 kg/m3
684.7 kPa	957.7 kg/m3
691 kPa	957.6 kg/m3
697.2 kPa	957.5 kg/m3
704.9 kPa	957.6 kg/m3
711.5 kPa	957.6 kg/m3
719.3 kPa	957.5 kg/m3
725.9 kPa	957.6 kg/m3
732.7 kPa	957.6 kg/m3
739.6 kPa	957.6 kg/m3
747.6 kPa	957.6 kg/m3
786 kPa	957.7 kg/m3
793.7 kPa	957.6 kg/m3
801.8 kPa	957.7 kg/m3
809.8 kPa	957.8 kg/m3
818 kPa	957.6 kg/m3
828.1 kPa	957.7 kg/m3
836.4 kPa	957.7 kg/m3
845.3 kPa	957.6 kg/m3
855.7 kPa	957.8 kg/m3
864.5 kPa	957.8 kg/m3
873.7 kPa	957.7 kg/m3
883.3 kPa	957.6 kg/m3
894.6 kPa	957.6 kg/m3
904.5 kPa	957.9 kg/m3
915.8 kPa	957.7 kg/m3
967 kPa	957.8 kg/m3
977.1 kPa	957.8 kg/m3
989.1 kPa	957.8 kg/m3
999.5 kPa	957.8 kg/m3
1011.5 kPa	957.9 kg/m3
1022.2 kPa	957.7 kg/m3
1032.7 kPa	958 kg/m3
1043.4 kPa	957.9 kg/m3
1053.7 kPa	957.9 kg/m3
1066.4 kPa	958 kg/m3
1076.6 kPa	957.9 kg/m3
1087.5 kPa	957.9 kg/m3
1100.4 kPa	957.8 kg/m3
1110.6 kPa	958 kg/m3
1121.6 kPa	957.9 kg/m3
1134.6 kPa	957.9 kg/m3
1280.5 kPa	958.2 kg/m3
1295.1 kPa	958.1 kg/m3
1307.6 kPa	958.1 kg/m3
1320.1 kPa	958.1 kg/m3
1332.9 kPa	958.2 kg/m3
1348.2 kPa	958.2 kg/m3
1414.9 kPa	958.2 kg/m3
1428.2 kPa	958.2 kg/m3
1444 kPa	958.2 kg/m3
1457.4 kPa	958.2 kg/m3
1470.4 kPa	958.2 kg/m3
1483.5 kPa	958.1 kg/m3
1513.7 kPa	958.3 kg/m3
1557.9 kPa	958.3 kg/m3
1571.7 kPa	958.3 kg/m3
1588.7 kPa	958.4 kg/m3
1603.1 kPa	958.4 kg/m3
1617.5 kPa	958.4 kg/m3
1697.7 kPa	958.3 kg/m3
1713.1 kPa	958.5 kg/m3
1728.4 kPa	958.5 kg/m3
1747.5 kPa	958.3 kg/m3
1763.5 kPa	958.4 kg/m3
1779.3 kPa	958.3 kg/m3
1795.9 kPa	958.4 kg/m3
1815 kPa	958.5 kg/m3
1831.3 kPa	958.5 kg/m3
1848.3 kPa	958.5 kg/m3
1865 kPa	958.4 kg/m3
1884.9 kPa	958.5 kg/m3
1902.5 kPa	958.6 kg/m3
1920.5 kPa	958.6 kg/m3
1937.8 kPa	958.6 kg/m3
1958.6 kPa	958.5 kg/m3
1976.1 kPa	958.6 kg/m3
1993.6 kPa	958.7 kg/m3
2012 kPa	958.6 kg/m3
2033.4 kPa	958.6 kg/m3
2051.6 kPa	958.6 kg/m3
2070.2 kPa	958.9 kg/m3
2092.2 kPa	958.6 kg/m3
2363.6 kPa	958.8 kg/m3
2384.2 kPa	958.9 kg/m3
2409 kPa	959 kg/m3
2429.7 kPa	959 kg/m3
2451.3 kPa	959 kg/m3
2477.2 kPa	959.1 kg/m3
2710.1 kPa	959.1 kg/m3
2733 kPa	959.1 kg/m3
2756.2 kPa	959.1 kg/m3
2778.8 kPa	959.3 kg/m3
2805.7 kPa	959.1 kg/m3
2828.2 kPa	959.3 kg/m3
2850.2 kPa	959.4 kg/m3
2877.4 kPa	959.2 kg/m3
2900.2 kPa	959.2 kg/m3
2971.9 kPa	959.4 kg/m3
2994.1 kPa	959.4 kg/m3
3021 kPa	959.5 kg/m3
3043.4 kPa	959.5 kg/m3
3066.1 kPa	959.4 kg/m3
3093.1 kPa	959.5 kg/m3
3115.3 kPa	959.5 kg/m3
3138.2 kPa	959.4 kg/m3
3165.6 kPa	959.5 kg/m3
3188.6 kPa	959.5 kg/m3
3212 kPa	959.6 kg/m3
3235.3 kPa	959.5 kg/m3
3263.5 kPa	959.6 kg/m3
3286.6 kPa	959.7 kg/m3
3314.6 kPa	959.6 kg/m3
3338.4 kPa	959.7 kg/m3
3362.1 kPa	959.6 kg/m3
3386.4 kPa	959.6 kg/m3
3410.3 kPa	959.6 kg/m3
3439.1 kPa	959.8 kg/m3
3463 kPa	959.8 kg/m3
3486.9 kPa	959.8 kg/m3
3514.8 kPa	959.7 kg/m3
3538.6 kPa	959.8 kg/m3
3563 kPa	959.8 kg/m3
3592.3 kPa	959.9 kg/m3
3616.2 kPa	960 kg/m3
3640.6 kPa	959.9 kg/m3
3665.4 kPa	959.8 kg/m3
3695 kPa	959.9 kg/m3
3719.3 kPa	959.8 kg/m3
3743.2 kPa	960 kg/m3
3768 kPa	960 kg/m3
3796.7 kPa	960 kg/m3
3821.2 kPa	960 kg/m3
4008.1 kPa	960.2 kg/m3
4035.6 kPa	960.1 kg/m3
4062.6 kPa	960.2 kg/m3
4089.1 kPa	960.2 kg/m3
4120.6 kPa	960.3 kg/m3
4147.6 kPa	960.4 kg/m3
4174.5 kPa	960.3 kg/m3
4201.5 kPa	960.3 kg/m3
4234.2 kPa	960.2 kg/m3
4261.2 kPa	960.4 kg/m3
4288.4 kPa	960.4 kg/m3
4316.6 kPa	960.4 kg/m3
4350.4 kPa	960.4 kg/m3
4378.3 kPa	960.5 kg/m3
4414.7 kPa	960.4 kg/m3
4437.5 kPa	960.5 kg/m3
4465.6 kPa	960.6 kg/m3
4499.5 kPa	960.5 kg/m3
4528.1 kPa	960.6 kg/m3
4557.2 kPa	960.6 kg/m3
4592.3 kPa	960.7 kg/m3
4621.6 kPa	960.6 kg/m3
4656.7 kPa	960.6 kg/m3
4686.5 kPa	960.7 kg/m3
4715.9 kPa	960.6 kg/m3
4751.9 kPa	960.8 kg/m3
4781.7 kPa	960.8 kg/m3
4812.3 kPa	960.7 kg/m3
4843.3 kPa	960.8 kg/m3
4880.7 kPa	960.9 kg/m3
4911.1 kPa	960.8 kg/m3
4942.3 kPa	961 kg/m3
4973.8 kPa	960.9 kg/m3
5010.3 kPa	960.9 kg/m3
5041.6 kPa	960.9 kg/m3
5073.3 kPa	961 kg/m3
5110.1 kPa	961 kg/m3
5141.5 kPa	960.9 kg/m3
5173.8 kPa	961 kg/m3
5212.2 kPa	961.1 kg/m3
5245.4 kPa	961.1 kg/m3
5277.4 kPa	961.2 kg/m3
5309.8 kPa	961.2 kg/m3
5348.9 kPa	961.2 kg/m3
5381.6 kPa	961.3 kg/m3
5415.2 kPa	961.3 kg/m3
5454.8 kPa	961.2 kg/m3
5488.1 kPa	961.3 kg/m3
5521.5 kPa	961.3 kg/m3
5555.1 kPa	961.3 kg/m3
5594.9 kPa	961.4 kg/m3
5627.9 kPa	961.3 kg/m3
5662.1 kPa	961.3 kg/m3

From the NIST ThermoML archive (doi:10.1021/je060271a)
